The test system of one data set is patients with HCC. Further details: method as in PMID 31575541. The settings on record: cited from earlier work.
Data set [1] concerns patients with HCC and intrahepatic cholangiocarcinoma. The arrangement: method as in doi:10.1200/JCO.2019.37.15_suppl.4095, doi:10.1200/JCO.2021.39.15_suppl.4090. The settings on record: cited from earlier work.
Data set [2] can be described thus: Pharmacokinetics of spartalizumab in combination arm. It is filed as in vivo, human. The settings on record: for AUC0-504h / AUClast / Cmax / Tmax: Cycle 1 day 1; for AUC0-504h / AUClast / Cmax: geometric mean (CV%); for Tmax: median [min, max]. The protocol: (§1) Pharmacokinetic endpoints included plasma concentrations and PK parameters of FGF401 and spartalizumab. Pharmacokinetic parameters were determined with noncompartmental method(s) using Phoenix WinNonlin version 6.4 or above (Pharsight Corporation, Mountain View, Califormia, USA). Immunogenicity of spartalizumab was assessed through presence and/or concentration of anti-drug (spartalizumab) antibodies (ADA). Food effect on FGF401 exposure was evaluated through plasma concentration of FGF401 and relevant PK parameters when dosing under fed condition. Safety of the food effect was assessed through incidence and severity of AEs and serious AEs (SAEs), including changes in laboratory values, vital signs, and ECGs when dosing under fed condition.
The PK analyses and summary statistics were based on pharmacokinetic analysis set. Individual as well as mean concentration-time profiles were constructed using concentration data for spartalizumab and FGF401. Descriptive statistics for PK parameters included mean, standard deviation, coefficient of variation (CV%) mean, geometric mean, median, minimum, and maximum, with only the latter 3 for time to reach maximum concentration (Tmax) and additional 90% CI for accumulation ratio (Racc). Zero concentrations were not included in the geometric mean calculations. Missing concentrations or PK parameter values were not imputed.

A short description of data set [3]: Immunogenicity of spartalizumab (anti-drug antibodies). It is filed as in vivo, human. The protocol: as §1
Setting [4] is: HCC patients with > 2 prior lines of therapy, qd schedule.
The mark [5] stands for this setting: spartalizumab 300 mg with FGF401 80 mg, n=6.
[6] abbreviates: spartalizumab 300 mg with FGF401 120 mg, n=6.

The values that follow come from article PMC9161616, “A first-in-human phase 1/2 study of FGF401 and combination of FGF401 with spartalizumab in patients with hepatocellular carcinoma or biomarker-selected solid tumors” (Journal of Experimental & Clinical Cancer Research : CR, 2022).

Read-outs that look alike come from different tables or passages of the source.

Turning to `C=CC(=O)N[C@H]1CCOC[C@H]1Nc1ncc2cc(-c3c(Cl)c(OC)cc(OC)c3Cl)ccc2n1` [BLU-554, fisogatinib], the ORR with patients with HCC (FGF19-negative patients) was 0%. The “median duration of response” value with patients with HCC (FGF19-positive patients, 95% CI: 3.7-not reached) is 5.3 months. Also, the ORR in the data set with patients with HCC (FGF19-positive patients) is on record as 17%. Further, the “Treatment discontinuation due to AE” value in the data set with patients with HCC is given as 12%. In the data set with patients with HCC (most common transaminase elevation), the “Grade ≥ 3 TRAEs” value was 43%. In addition, in the data set with patients with HCC (qd), the “treatment related AE: diarrhea” value is 74%, the “treatment related AE: nausea” value is reported as 42% and the “treatment related AE: vomiting” value is 35%.

Take `C=CC(=O)Nc1cc(N2CCN(CC)CC2)ccc1Nc1cc(N(C)C(=O)Nc2c(Cl)c(OC)cc(OC)c2Cl)ncn1` [H3B-6527]: the “drug discontinuation due to AEs” value in data set [1] (HCC and intrahepatic cholangiocarcinoma, qd dosing) is 8.3%. The “Grade 3 TEAE” value in data set [1] (HCC and intrahepatic cholangiocarcinoma) is 12.5%. In data set [1] (setting [4]), the OS is recorded as 10.6 months and the PFS was 4.1 months. Moreover, the ORR in data set [1] (all PR, HCC patients with > 2 prior lines of therapy, qd schedule) was 16.7%. Also, the clinical benefit rate in data set [1] (responders + durable SD > 17 weeks, HCC, qd schedule) was 45.8%.

Take “spartalizumab: humanized immunoglobulin G4κ monoclonal antibody that binds PD-1 and blocks its interaction with PD-L1/PD-L2”: the AUC0-504h in data set [2] (spartalizumab 300 mg with FGF401 80 mg, n=3) is listed as 760 (1.9) day*µg/mL. In addition, in data set [2] (setting [5]), the AUClast was 795 (34.5) day*µg/mL, the Cmax came to 74.7 µg/mL and the Tmax was 1.58 [1.5-161] h. In data set [2] (setting [6]), the AUC0-504h is 967 (13.9) day*µg/mL, the AUClast is 978 (15.8) day*µg/mL, the Cmax was 87.7 µg/mL and the Tmax was 1.5 [1.43-1.5] h. Also, the “spartalizumab exposures in combination versus similar studies with 300 mg q3w” value in data set [2] (compared with refs 25, 30) was “might be comparable”. For the same compound, in data set [2] (spartalizumab in combination with 80 mg FGF401), the “geo-mean AUClast” value stood at 795 µg·days/mL. In addition, in data set [2] (spartalizumab in combination with 120 mg FGF401), the “geo-mean AUClast” value was 978 µg·days/mL. Also, the “patients positive for treatment-induced ADA for spartalizumab” value in data set [3] (One of 12 patients, C2D1 and C3D1 predose) amounted to 8.3%. Besides, in data set [3] (one ADA-positive patient), the ADA titers entry was “low to moderate” and the “influence of ADA on PK profiles” value is recorded as “did not appear to influence the PK profiles”.
